# Where two headings read alike, the source gives them in different places.
# Key:
# [1] = test system: Western Flower Thrips (Frankliniella occidentalis (Pergande)); test: Test C: control of Western Flower Thrips on Soleil bean plant, spray, contact and/or systemic; type: in vivo; settings: sprayed at 250 ppm, adult thrips, held 6 days
# Description: (§1) Test compounds were formulated using a solution containing 10% acetone, 90% water and 300 ppm X-77® Spreader Lo-Foam Formula non-ionic surfactant containing alkylarylpolyoxyethylene, free fatty acids, glycols and isopropanol (Loveland Industries, Inc. Greeley, Colo., USA). The formulated compounds were applied in 1 mL of liquid through a SUJ2 atomizer nozzle with ⅛ JJ custom body (Spraying Systems Co. Wheaton, Ill., USA) positioned 1.27 cm (0.5 inches) above the top of each test unit. Test compounds were sprayed at the rates indicated, and each test was replicated three times.
# For evaluating control of the Western Flower Thrips (Frankliniella occidentalis (Pergande)) through contact and/or systemic means, the test unit consisted of a small open container with a 5-7-day-old Soleil bean plant inside.
# Test compounds were formulated and sprayed at 250 ppm. After spraying, the test units were allowed to dry for 1 hour, and then 22-27 adult thrips were added to each unit. A black, screened cap was placed on top, and the test units were held for 6 days at 25° C. and 45-55% relative humidity.
# [2] = test system: green peach aphid (Myzus persicae (Sulzer)); test: Test A: control of green peach aphid on radish plant, spray, contact and/or systemic; type: in vivo; settings: 144 h, assessed after 6 days; for mortality at 50 ppm: sprayed at 50 ppm; for mortality at 250 ppm: sprayed at 250 ppm
# Description: as §1
# For evaluating control of green peach aphid (Myzus persicae (Sulzer)) through contact and/or systemic means, the test unit consisted of a small open container with a 12-15-day-old radish plant inside. This was pre-infested by placing on a leaf of the test plant 30-40 aphids on a piece of leaf excised from a culture plant (cut-leaf method). The aphids moved onto the test plant as the leaf piece desiccated. After pre-infestation, the soil of the test unit was covered with a layer of sand.
# Test compounds were formulated and sprayed at 250 and/or 50 ppm. After spraying of the formulated test compound, each test unit was allowed to dry for 1 hour and then a black, screened cap was placed on top. The test units were held for 6 days in a growth chamber at 19-21° C. and 50-70% relative humidity. Each test unit was then visually assessed for insect mortality.
# [3] = test system: cotton melon aphid (Aphis gossypii (Glover)); test: Test B: control of cotton melon aphid on cotton plant, spray, contact and/or systemic; type: in vivo; settings: 144 h
# Description: as §1
# For evaluating control of cotton melon aphid (Aphis gossypii (Glover)) through contact and/or systemic means, the test unit consisted of a small open container with a 6-7-day-old cotton plant inside. This was pre-infested with 30-40 insects on a piece of leaf according to the cut-leaf method, and the soil of the test unit was covered with a layer of sand.
# Test compounds were formulated and sprayed at 250 and/or 50 ppm. After spraying, the test units were maintained in a growth chamber for 6 days at 19° C. and 70% relative humidity. Each test unit was then visually assessed for insect mortality.
# [4] = test system: sweetpotato whitefly (Bemisia tabaci (Gennadius)); test: Test D: control of sweetpotato whitefly on cotton plant, spray, contact and/or systemic; type: in vivo; settings: 312 h, sprayed at 250 ppm, cotton plant infested with eggs, assessed after 13 days
# Description: as §1
# For evaluating control of the sweetpotato whitefly (Bemisia tabaci (Gennadius)) through contact and/or systemic means, the test unit consisted of a small open container with a 12-14-day-old cotton plant inside. Prior to the spray application, both cotyledons were removed from the plant, leaving one true leaf for the assay. Adult whiteflies were allowed to lay eggs on the plant and then were removed from the test unit. Cotton plants infested with at least 15 eggs were submitted to the test for spraying.
# Test compounds were formulated and sprayed at 250 and/or 50 ppm. After spraying, the test units were allowed to dry for 1 hour. […] Each test unit was then visually assessed for insect mortality.
# [5] = sprayed at 250 ppm, cotton plant, assessed after 6 days, read-out: mortality
Compound,control efficacy (30% or less plant damage and/or 100% mortality) [1],mortality at 250 ppm [2] [%],"mortality at 250 ppm [3, 5] [%]",further results
"2,4,6,7-tetrahydro-2-(3-pyridinyl)-N-(2,2,2-trifluoromethyl)-5H-pyrazolo[4,3-c]pyridine-5-carboxamide [Compound 15]",very good to excellent levels of control efficacy,–,–,–
"COC(=O)NNC(=O)N1CCc2nn(-c3cccnc3)cc2C1 [Compound 10, 2,4,6,7-tetrahydro-2-(3-pyridinyl)-5H-pyrazolo[4,3-c]pyridine-5-carboxylic acid, 2-(methoxycarbonyl)hydrazide]",very good to excellent levels of control efficacy,≥ 80,–,mortality at 50 ppm [2]: ≥ 80%
"COC(CN(C)C(=O)N1CCc2nn(-c3cccnc3)cc2C1)OC [Compound 14, 2,4,6,7-tetrahydro-N-methyl-2-(3-pyridinyl)-N-(2,2-dimethoxyethyl)-5H-pyrazolo[4,3-c]pyridine-5-carboxamide]",–,≥ 80,–,mortality at 50 ppm [2]: ≥ 80%
FC(F)(F)c1ccc(N2CCc3nn(-c4cccnc4)cc3C2)nc1 [Compound 19],very good to excellent levels of control efficacy,–,–,–
"FC(F)(F)c1cc(N2CCc3nn(-c4cccnc4)cc3C2)ccn1 [Compound 20, 4,5,6,7-tetrahydro-2-(3-pyridinyl)-5-[2-(trifluoromethyl)-4-pyridinyl]-2H-pyrazolo[4,3-c]pyridine]",very good to excellent levels of control efficacy,≥ 80,–,mortality at 50 ppm [2]: ≥ 80%
"O=C(CCSCC(F)(F)F)N1CCc2nn(-c3cccnc3)cc2C1 [Compound 22, 1-[2,4,6,7-tetrahydro-2-(3-pyridinyl)-5H-pyrazolo[4,3-c]pyridin-5-yl]-3-[(2,2,2-trifluoroethyl)thio]-1-propanone]",very good to excellent levels of control efficacy,≥ 80,≥ 80,–
"O=C(CC[S+]([O-])CC(F)(F)F)N1CCc2nn(-c3cccnc3)cc2C1 (stereo not shown) [Compound 23, 1-[2,4,6,7-tetrahydro-2-(3-pyridinyl)-5H-pyrazolo[4,3-c]pyridin-5-yl]-3-[(2,2,2-trifluoroethyl)sulfinyl]-1-propanone]",very good to excellent levels of control efficacy,≥ 80,≥ 80,–
O=C(NCC(F)(F)F)N1CCc2nn(-c3cccnc3)cc2C1 [Compound 28],–,–,–,melting point: 118.3 to 155.3 °C
CNC(=O)N1CCc2nn(-c3cccnc3)cc2C1 [Compound 29],–,–,–,melting point: 212 to 224.2 °C
CCNC(=O)N1CCc2nn(-c3cccnc3)cc2C1 [Compound 31],–,–,–,melting point: 151.1 to 170.5 °C
"COC1CC(NC(=O)N2CCc3nn(-c4cccnc4)cc3C2)C1 (stereo not shown) [Compound 47, 2,4,6,7-tetrahydro-N-(3-methoxycyclobutyl)-2-(3-pyridinyl)-5H-pyrazolo[4,3-c]pyridine-5-carboxamide]",–,–,≥ 80,–
"c1cncc(-n2cc3c(n2)CCN(c2cnccn2)C3)c1 [Compound 48, 4,5,6,7-tetrahydro-2-(3-pyridinyl)-5-(2-pyrazinyl)-2H-pyrazolo[4,3-c]pyridine]",–,–,≥ 80,–
c1ccc(N2CCc3nn(-c4cccnc4)cc3C2)nc1 [Compound 49],–,–,–,melting point: 117 to 125.1 °C
"CN(C)C(=O)OCC(=O)N1CCc2nn(-c3cccnc3)cc2C1 [Compound 51, 2-oxo-2-[2,4,6,7-tetrahydro-2-(3-pyridinyl)-5H-pyrazolo[4,3-c]pyridin-5-yl]ethyl N,N-dimethylcarbamate]",–,–,–,mortality at 250 ppm [3]: ≥ 80%
c1cncc(N2CCc3nn(-c4cccnc4)cc3C2)c1 [Compound 52],–,≥ 80,–,mortality at 250 ppm [4]: ≥ 50%
"N#CCC(=O)N1CCc2nn(-c3cccnc3)cc2C1 [Compound 54, 2,4,6,7-tetrahydro-β-oxo-2-(3-pyridinyl)-5H-pyrazolo[4,3-c]pyridine-5-propanenitrile]",–,≥ 80,≥ 80,mortality at 250 ppm [4]: ≥ 50%

# Reference: patent publication US10383335B2, “Bicyclic pyrazole pesticides” (FMC Corporation, priority 2015, dated 2019)
